This assay addresses T1, Aurora A kinase (AURKA) (Homo sapiens, UniProt O14965).
T1 sequence (O14965 1-403): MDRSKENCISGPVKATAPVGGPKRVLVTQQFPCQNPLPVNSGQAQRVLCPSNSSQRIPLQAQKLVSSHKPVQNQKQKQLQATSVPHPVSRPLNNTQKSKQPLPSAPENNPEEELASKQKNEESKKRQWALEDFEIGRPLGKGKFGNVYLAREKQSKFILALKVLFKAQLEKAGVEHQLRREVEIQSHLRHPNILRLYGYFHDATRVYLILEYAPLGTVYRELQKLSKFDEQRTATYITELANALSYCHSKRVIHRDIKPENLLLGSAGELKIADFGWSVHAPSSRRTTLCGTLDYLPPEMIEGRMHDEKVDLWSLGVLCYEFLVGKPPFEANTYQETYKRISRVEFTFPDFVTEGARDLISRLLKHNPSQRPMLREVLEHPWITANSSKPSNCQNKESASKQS
The experiment in a line: microscale thermophoresis with RED-NHS labelled purified AURKA ([…]). The assay is classed as binding. (In general: In MST a laser heats a spot of the sample, and binding alters the fluorescence response.)

The Kd is the free concentration of one partner at which half of the binding sites on the other are occupied at equilibrium, for simple one-to-one binding. Read a low Kd as higher affinity. As for `COc1cccc(C)c1C(=O)O[C@@H]1C[C@H](O[C@H]2[C@H](O)C[C@H](O[C@@H]3CCC[C@H]4[C@H]3C=C[C@@H]3CCCC/C=C\[C@H]5C=C(C(=O)O)[C@@H](C)C[C@@]56OC(=O)C(=C6O)OC(=O)[C@@]34C)O[C@@H]2C)O[C@H](C)[C@H]1O` [Compound 5, deschloro-chlorothricin], binding was characterised by a dissociation constant (Kd) of 8.17 µM. This counts as single-digit micromolar.
